Assay results taken from patent US8834635B2, “Degreasing compositions derived from levulinic acid (a compound obtainable from biomass) and process for degreasing metal surfaces” (Institut Univ. de Ciencia Tecnologia, S.A., priority 2011, dated 2014).
≈ marks a conversion by molar mass, not a printed value.

Tests used:
[1] = Removal efficacy test, solvent immersion followed by rinsing with water; conditions: for Removal Efficacy normalized to trichloroethylene: Cereous preservative, water rinsing
Excerpt: (§1) For our evaluation, a comparative method was used in which removal efficacy (RE) of several alternative solvents are compared with RE value obtained for the industrial standard degreaser, trichloroethylene.
(§2) The removal Efficacy (RE) measures in percentage (%) the degree of removal of organic materials (metal protector and/or solvent) from the surface of metal parts. The removal efficacy test, the grease of ten metallic greased pieces was removed by degreasing process. The standard procedure is carried out by bringing the solvent into contact with ten metal pieces which were previously treated with the metal protector. The metal parts are immersed in the solvent without shaking during 10 minutes in one volume of fresh solvent followed by three consecutive washing cycles by immersion in clean water. The amount of organic material (grease and/or solvent) that was not eliminated by the assayed procedure was determined by direct weight after removal of organic residues from the metallic parts by standard cleaning procedure with trichloroethylene.
Preservative B is a cereous-based preservative.
(§3) The degreasing efficacy of the LAOC solvent family was studied. These experiments remove the grease of ten greased pieces according to the procedure described before. This experiment was carried out for two different greases and the obtained results are described in table 2.

[2] = tested on: Fish; assay: Fish acute toxicity; conditions: in vivo
[3] = Fish acute toxicity; conditions: fish, in vivo; read-out: Fish acute toxicity, experimental, LC50
[4] = Removal efficacy test, solvent immersion followed by rinsing with water; conditions: for Removal Efficacy normalized to trichloroethylene: Solvent-based preservative, water rinsing
Excerpt: as §1, §2
Preservative A is a solvent-based preservative Aromatic hydrocarbons are often used in preservative formulations.
as §3

[5] = Cytotoxicity, in vitro NRU; format: cell-based; conditions: read-out: Cytotoxicity, in vitro NRU, IC50 (mg/mL). Experimental.
[6] = Surface degreasing of metal parts followed by solvent evaporation
[7] = Reusability of solvent without prior purification
Procedure: as §2
The recovery and reusability of solvents is critical in order to have an economically viable process. The reusability of butyl levulinate (LAOC-4) has been studied for both preservatives. The methodology involved the recovery and reuse of the solvent several times without any prior purification.

[8] = classified by many health authorities, R45 risk phrase; cited from earlier work

CCCCCCOC(=O)CCC(C)=O [LAOC-6, Hexyl levulinate]
Removal Efficacy normalized to trichloroethylene [1]: 56.0%

CC(=O)CCC(=O)OCC(C)C [LAOC-4i, iso-butyl levulinate]
Ecotoxicity rating (fish acute toxicity and ready biodegradability) [2]: Low ecotox. | LC50 [3]: < 100 µg/mL | Removal Efficacy normalized to trichloroethylene [4]: 87.8% | IC50 [5]: 4.4 mg/mL (≈ 25.5 mM) | Removal Efficacy normalized to trichloroethylene [1]: 96.4%

CCCCOC(=O)CCC(C)=O [LAOC-4, Butyl levulinate]
Ecotoxicity rating (fish acute toxicity and ready biodegradability) [2]: Low ecotox. | LC50 [3]: < 100 µg/mL | Removal Efficacy normalized to trichloroethylene [4]: 79.0% | Removal efficacy (%) ([6]; Ultrasound, 41° C., 10 min, evaporation 23 s at 117° C.): 100% | Reusability (values normalized to trichloroethylene = 100) ([7]; Cereous preservative, number of cycles 1): 98.0 | Reusability (values normalized to trichloroethylene = 100) ([7]; Cereous preservative, number of cycles 2): 93.2 | Reusability (values normalized to trichloroethylene = 100) ([7]; Cereous preservative, number of cycles 4): 93.4 | Reusability (values normalized to trichloroethylene = 100) ([7]; Cereous preservative, number of cycles 7): 85.9 | Reusability (values normalized to trichloroethylene = 100) ([7]; Cereous preservative, number of cycles 10): 84.6 | Reusability (values normalized to trichloroethylene = 100) ([7]; Solvent based preservative, number of cycles 1): 74.4 | Reusability (values normalized to trichloroethylene = 100) ([7]; Solvent based preservative, number of cycles 2): 78.2 | Reusability (values normalized to trichloroethylene = 100) ([7]; Solvent based preservative, number of cycles 4): 62.2 | Reusability (values normalized to trichloroethylene = 100) ([7]; Solvent based preservative, number of cycles 7): 69.7 | IC50 [5]: 5.7 mg/mL (≈ 33.1 mM) | Removal Efficacy normalized to trichloroethylene [1]: 99.9%

ClC=C(Cl)Cl [Trichloroethylene, reference compound]
RE (%) Removal Efficacy ([4]; Preservative A (solvent-based), immersion 10 minutes, three water washing cycles): 94.2% | Removal Efficacy normalized to trichloroethylene [4]: 100.0% | removal efficacy (RE) ([4]; depending on the nature of the preservative (both preservatives A and B)): 94-98% | Removal efficacy (%) ([6]; Immersion, 20° C., 3 min, evaporation 3 min at 20° C.): 100% | carcinogen classification [8]: probable carcinogen | Removal Efficacy normalized to trichloroethylene [1]: 100.0% | RE (%) Removal Efficacy ([1]; Preservative B (cereous-based), immersion 10 minutes, three water washing cycles): 98.1%

CCCCCCCCOC(=O)CCC(C)=O [LAOC-8, Octyl levulinate]
Removal Efficacy normalized to trichloroethylene [1]: 61.0%

CCCCCOC(=O)CCC(C)=O [LAOC-5, Pentyl levulinate]
Ecotoxicity rating (fish acute toxicity and ready biodegradability) [2]: Low ecotox. | LC50 [3]: < 100 µg/mL | Removal Efficacy normalized to trichloroethylene [4]: 37.7% | IC50 [5]: 16.6 mg/mL (≈ 89.1 mM) | Removal Efficacy normalized to trichloroethylene [1]: 89.3%

CCOC(=O)CCC(C)=O [LAOC-2, Ethyl levulinate]
Removal Efficacy normalized to trichloroethylene [4]: 53.0% | Removal Efficacy normalized to trichloroethylene [1]: 70.9%

CCCOC(=O)CCC(C)=O [LAOC-3, Propyl levulinate]
Removal Efficacy normalized to trichloroethylene [4]: 79.6% | Removal Efficacy normalized to trichloroethylene [1]: 81.7%

CC(=O)CCC(=O)OC(C)C [LAOC-3i, iso-propyl levulinate]
Removal Efficacy normalized to trichloroethylene [1]: 87.0%
